Reference: patent publication US20250268967A1, “NUTRACEUTICAL COMPOUNDS USEFUL IN THE TREATMENT OF CORONAVIRUS DISEASE” (priority 2020, published 2025)
Read-outs that look alike come from different tables or passages of the source.

Experiments:
COVID-19 protease = COVID-19 protease (Severe acute respiratory syndrome coronavirus 2, UniProt P0DTD1); details: molecular docking, in words; cited from earlier work
[1] = infected patients, 60 mg daily for four months; in words; cited from earlier work
[2] = from three publications; read-out: cytotoxicity (CC50); cited from earlier work
SARS-CoV-2 [3] = test: In vitro antiviral assay, VeroE6 cells and Calu3 cells (cell line not separated in the statement); details: for inhibition of the SARS-CoV-2 virus: cell line not specified (FIG. 2, FIG. 6)
SARS-CoV-2 [4] = test: In vitro antiviral immunostaining assay in Calu-3 cells; assay type: cell-based
SARS-CoV-2 [5] = test: microbe, parasite or virus in culture; assay type: cell-based
Calu-3 cells = details: in words
in vitro = details: human
[6] = molecular target: T1, α-globulin (vitamin D-Binding Protein [DBP]) (Homo sapiens, UniProt P02774); details: binds weakly to α-globulin (DBP) after absorption via chylomicrons; cited from earlier work
T1 sequence (P02774 17-474): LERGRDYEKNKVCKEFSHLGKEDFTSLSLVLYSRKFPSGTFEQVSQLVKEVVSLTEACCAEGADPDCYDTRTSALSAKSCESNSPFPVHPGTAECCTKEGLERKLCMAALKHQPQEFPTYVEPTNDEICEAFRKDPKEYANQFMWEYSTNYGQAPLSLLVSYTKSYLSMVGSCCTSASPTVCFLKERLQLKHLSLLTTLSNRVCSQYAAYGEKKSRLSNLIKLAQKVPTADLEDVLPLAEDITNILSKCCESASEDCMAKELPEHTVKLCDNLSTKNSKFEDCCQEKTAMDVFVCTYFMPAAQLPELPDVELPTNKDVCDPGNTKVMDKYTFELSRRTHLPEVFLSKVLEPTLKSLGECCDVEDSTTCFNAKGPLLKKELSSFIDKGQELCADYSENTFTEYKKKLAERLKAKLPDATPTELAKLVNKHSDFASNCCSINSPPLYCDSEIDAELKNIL

SARS-CoV-2 [7] = test: In vitro antiviral immunostaining assay in Vero E6 cells

SMILES: C[C@@H]1C(=O)O[C@H]2C[C@@]34[C@H]5C[C@@H](C(C)(C)C)[C@]36[C@@H](OC(=O)[C@@H]6O)O[C@@]4(C(=O)O5)[C@]21O [Ginkgolide A]
- predicted binding affinity to the COVID-19 protease (COVID-19 protease): high binding affinity

SMILES: CC1=C(/C=C/C(C)=C/C=C/C(C)=C/C=C/C=C(C)/C=C/C=C(C)/C=C/C2=C(C)CCCC2(C)C)C(C)(C)CCC1 [Beta Carotene, Beta-carotene]
- clinical toxicity [1]: No clinical toxicity was observed

SMILES: CCC(CC)COC(=O)[C@H](C)N[P@](=O)(OC[C@H]1O[C@@](C#N)(c2ccc3c(N)ncnn23)[C@H](O)[C@@H]1O)Oc1ccccc1 [Remdesivir]
- CC50 [2]: > 100 µM

SMILES: [Zn] [Zinc]
- cytotoxicity, as measured by cell viability (SARS-CoV-2 [3]; FIG. 6, in words): not observed
- inhibition of the SARS-CoV-2 virus (SARS-CoV-2 [3]): about 75%

SMILES: CC(C)=CCC[C@](C)(O)[C@@H]1CC=C(C)CC1 [Levomenol, α-(−)-bisabolol]
- inhibition of the virus (SARS-CoV-2 [4]; Calu-3 cells infected with SARS-CoV-2, FIG. 3): about 60%
- selectivity index (SI) (SARS-CoV-2 [5]; Calu-3 cells, from CC50 and EC50): 26.1
- EC50 (SARS-CoV-2 [5]; Severe acute respiratory syndrome coronavirus 2, Calu-3 cells infected with SARS-CoV-2, FIG. 4, read-out: EC50 (antiviral activity against SARS-CoV-2)): 115 nM
- cytotoxicity, as measured by inhibition of cell viability (Calu-3 cells): not observed
- CC50 (in vitro): 3000 nM

SMILES: C=C1CC[C@H](O)C/C1=C/C=C1\CCC[C@]2(C)[C@@H]([C@H](C)CCCC(C)C)CC[C@@H]12 [Vitamin D3, cholecalciferol]
- IC50 (SARS-CoV-2 [4]; Severe acute respiratory syndrome coronavirus 2, Calu-3): ~22.3 µM
- protein binding [6]: 50-80%
- EC100 (SARS-CoV-2 [7]; Vero E 6 cells, SARS-CoV-2, in words): Achieved
- IC50 (SARS-CoV-2 [7]; VeroE6 cells, FIG. 2): ~33.5 µM
- inhibition of the SARS-CoV-2 virus (SARS-CoV-2 [3]): about 100%
